{"source": "patent US7972798B2", "about": "“Method for identifying diabetic patients at increased risk for pathological complications” (The United States of America as represented by the …, priority 2007, dated 2011)", "key": {"Bovine endothelial cells": {"system": "Bovine endothelial cells", "assay": "Apoptosis assay (Hoechst 33342 / propidium iodide) in endothelial cells", "assay_type": "cell-based", "description": "Apoptosis Assay. Endothelial cells were cultured in 24-well plates to reach ˜90% confluence. Purified IgG was added directly to cultured medium. At 0, 6, 12, 18 and 24 hours, culture media was removed and the cells were incubated in a balanced salt solution (BSS) (140 mM NaCl, 2.8 mM KCl, 2 mM CaCl2, 2 mM MgCl2, 10 mM HEPES, pH 7.2) containing propidium iodide (PI, 25 μg/ml) and Hoechst 33342 (10 μM, Sigma) for 15 min. The cells were examined by Zeiss Axiovert 200M microscope using 20× objective (NA 0.4) for phase contrast, fluorescent blue (Hoechst) and red (PI) images. As a membrane permeable dye, Hoechst stains all nuclei with bright blue, while cell impermeable PI only stains the nuclei in the dying cells, which lost their membrane integrity. Early apoptotic cells whose membranes are still intact present only blue nuclei, but the initiation of DNA fragmentation result in patched labeling of the nuclei by Hoechst (14). Cells entering the late apoptotic stage have bright red condensed chromatin or fragmented nuclei that distinguish them from necrotic ones, which have a uniform red color usually with enlarged nuclei. For each experiment, a minimum of total 400 cells for each duplicated sample were counted from at least five randomly chosen fields and the percentage of total apoptotic cells was obtained by adding early and late apoptotic cells. Each experiment was repeated at least three times."}, "[1]": {"system": "rat pheochromocytoma (PC12) cells", "assay": "bFGF-induced neurite outgrowth assay in PC12 cells", "assay_type": "cell-based", "description": "Undifferentiated rat PC12 cells were obtained from American Type Culture Collection (Rockville, Md.) and plated at low density in 60 mm dishes. Three groups of 25-50 cells/dish were counted at baseline and at 3 days and 8 days after the addition of test patient protein-A eluate fractions (1:50 or 1:100 dilutions corresponding to 1-30 ug/mL protein). Neurite outgrowth represents the percentage of PC12 cells expressing more than one neurite. A neurite is defined as a cell process that is at least 2 cell diameters in length. Results represent the mean±SD of triplicate determinations in each test fraction.\nUndifferentiated rat PC12 cells obtained from the ATCC were plated at low density. Groups of 25-50 cells/dish were counted at baseline and at 3 and 8 days after exposure to 10 ng/mL basic fibroblast growth factor in the presence or absence of test diabetic plasma IgG fractions and Y27632. Results represent triplicate determinations for each test fraction."}, "endothelial cells": {"system": "endothelial cells", "assay": "F-actin stress fiber formation in endothelial cells (phalloidin staining)", "assay_type": "cell-based, bovine", "conditions": "co-incubation, 10 uM", "description": "For bright field images, the ˜90% confluent endothelial cells in 24-well plates with various treatments were visualized under Zeiss Axiovert 200 inverted microscope with phase contrast 20× dry lens (NA 0.4). Alternatively, the cells cultured in glass-bottom dishes were monitored under transmission light mode (DIC images) with Zeiss LSM510 META confocal microscope with 63×, water immersion lens (NA 1.2). The live cell DIC images of the endothelial cells were captured continuously up to 15 minutes at room temperature at the speed of about 1 frame/min. For fluorescence images, the cells were cultured on glass-bottom dishes for two days before the experiments. At indicated time point after addition of autoantibodies, 10 μM Hoechst dye 33342 (Sigma Inc., St Louis, Mo.) was added into the culture medium for 15 min at 37° C. in a dark chamber. As described previously, the chromatin condensation and fragmentation was visualized with the Zeiss confocal laser scanning microscope using a 63× water immersion objective, with the excitation wavelength set at 351 nm and the emission filter set at 385-470 nm. We used Texas Red-labeled phalloidin to visualize actin stress fibers. First, we aseptically inserted glass coverslips (12-mm diameter) into 24-well tissue culture plate. […]"}}, "note": "Entries after “also recorded” stand apart in the source; their conditions may differ.", "data": [{"compound": "CC(C)[C@H](NC(=O)c1ccc2ccccc2n1)C(=O)N[C@@H](CC(=O)O)C(=O)COc1c(F)cccc1F", "note": "[Q-VD-OPH]", "values": [{"measurement": "block of apoptosis in cells exposed to IgG from patient #2", "setting": "Bovine endothelial cells; 10 μM, 12 hours", "result": "almost completely blocked apoptosis"}, {"measurement": "block of apoptosis in cells exposed to diabetic plasma IgG", "setting": "Bovine endothelial cells; concentration not given", "result": "nearly completely blocked apoptosis"}]}, {"compound": "C[C@@H](N)[C@H]1CC[C@H](C(=O)Nc2ccncc2)CC1", "note": "[Patient Y27632, Y27632]", "values": [{"measurement": "restoration of bFGF-induced neurite outgrowth in presence of blocking autoantibodies", "setting": "[1]; Y27632 1 uM, bFGF 10 ng/mL, autoantibodies from three diabetic patients", "result": "completely restored neurite outgrowth"}, {"measurement": "restoration of bFGF-induced neurite outgrowth in presence of blocking autoantibodies", "setting": "[1]; co-incubation, concentration not stated", "result": "abolished; also recorded: neutralization of inhibition; also recorded: reversal"}, {"measurement": "restoration of bFGF-induced neurite outgrowth in presence of blocking autoantibodies", "setting": "[1]; co-incubation, concentration not stated, listed as Y-27632", "result": "completely restored"}, {"measurement": "inhibition of endothelial cell apoptosis from one diabetic IgG fraction", "setting": "Bovine endothelial cells; 10 uM, n=3 experiments", "result": "partially inhibited"}, {"measurement": "inhibition of autoantibody-induced stress fiber formation", "setting": "endothelial cells", "result": "largely inhibited"}]}, {"compound": "bFGF: Recombinant human bFGF from Austral Biologicals", "values": [{"measurement": "rescue or prevention of eluate-induced apoptosis", "setting": "Bovine endothelial cells; 100 pg/mL bFGF co-incubated with 4-30 ug/mL active protein-A eluate from 5 of 5 diabetic maculopathy plasmas, preliminary", "result": "did not rescue or prevent apoptosis"}]}]}
